Among the data in the supplement of paper PMC10307832 are relative viability values, retold here.

What all share (experiment): relative viability (nuclei count vs DMSO), 5 days (fraction); higher = more cells survive
One assay deals with A549. Summed up:
(§1)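 Lung cancer cell lines were pin-tool dosed in 1536-well plates on the day after seeding, with either a lone drug or a fixed anchor-drug dose plus five library-drug doses (not always all listed) in √10 steps. Nuclei were counted on 4× images after 5 days. Relative viability is the ratio of treated-well to vehicle-well nuclei counts, with each value a median of duplicate plates.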

In a further assay the test system is NCI-H1299. Summed up:
as §1

Another assay concerns Calu-6. Summed up: as §1
For another assay, the system named is NCI-H1703. Summed up: as §1
The test system of another assay is NCI-H2126. Summed up: as §1
In another assay the test system is IA-LM. Summed up:
as §1

The next assay has as its system EBC-1. Summed up: as §1

For the compound `C[C@@H]1CN(CC(=O)Nc2ccc3c(c2)Cc2cccc(-c4cc(=O)cc(N5CCOCC5)o4)c2S3)C[C@H](C)O1` + Cc1nc(NC(=O)N2CCC[C@H]2C(N)=O)sc1-c1ccnc(C(C)(C)C(F)(F)F)c1 [Alpelisib] (partner 2 µM), the relative viability with A549 (first compound 0.04 µM) came out at 0.776; in the assay with A549 (first compound 0.1265 µM), 0.753; with A549 (first compound 0.4 µM) it was 0.826; in the assay with A549 (first compound 4 µM) it was 0.457; in the assay with NCI-H1299 (first compound 0.04 µM), 1.02; in the assay with NCI-H1299 (first compound 0.1265 µM), 1.05. In addition, the relative viability with NCI-H1299 (first compound 0.4 µM) was 1.05; with NCI-H1299 (first compound 4 µM), 1.02; in the assay on Calu-6 (first compound 0.04 µM), 1.03; in the assay with Calu-6 (first compound 0.1265 µM), 1.03; in the assay with Calu-6 (first compound 0.4 µM) it was 0.97; in the assay on Calu-6 (first compound 4 µM) it was 0.79. Besides, the relative viability came out at 0.426 in the assay on NCI-H1703 (first compound 0.04 µM); 0.33 in the assay with NCI-H1703 (first compound 0.1265 µM); 0.299 in the assay with NCI-H1703 (first compound 0.4 µM); 0.277 with NCI-H1703 (first compound 4 µM); 0.807 with NCI-H2126 (first compound 0.04 µM); 0.765 with NCI-H2126 (first compound 0.1265 µM). Also, the relative viability is 0.738 in the assay on NCI-H2126 (first compound 0.4 µM); 0.762 in the assay with NCI-H2126 (first compound 4 µM); 0.884 with IA-LM (first compound 0.04 µM); 0.801 in the assay on IA-LM (first compound 0.1265 µM); 0.895 in the assay with IA-LM (first compound 0.4 µM); 0.387 with IA-LM (first compound 4 µM). Also, the relative viability in the assay with EBC-1 (first compound 0.04 µM) was 0.905; with EBC-1 (first compound 0.1265 µM), 0.826; with EBC-1 (first compound 0.4 µM), 0.386; in the assay with EBC-1 (first compound 4 µM), 0.506.
Consider `CC(C)Oc1cc(Nc2nc(N[C@@H](C)c3ccc(F)cn3)ncc2Cl)n[nH]1` [AZ23] + CC1(C)CCC(c2ccc(Cl)cc2)=C(CN2CCN(c3ccc(C(=O)NS(=O)(=O)c4ccc(N[C@H](CCN5CCOCC5)CSc5ccccc5)c(S(=O)(=O)C(F)(F)F)c4)cc3)CC2)C1 [Navitoclax] (partner 0.5 µM), for which the relative viability came out at 1.58 in the assay with A549 (first compound 0.01 µM); 1.48 in the assay on A549 (first compound 0.03162 µM); 1.2 with A549 (first compound 0.3162 µM); 1.08 in the assay with NCI-H1299 (first compound 0.01 µM); 1.04 in the assay with NCI-H1299 (first compound 0.03162 µM); 1.08 in the assay on NCI-H1299 (first compound 0.3162 µM). Moreover, the relative viability with Calu-6 (first compound 0.03162 µM) came to 0.952; with Calu-6 (first compound 0.3162 µM), 0.739; in the assay with NCI-H1703 (first compound 0.03162 µM), 1.13; in the assay with NCI-H1703 (first compound 0.3162 µM) it was 1.08; in the assay on NCI-H2126 (first compound 0.01 µM), 0.835; in the assay on NCI-H2126 (first compound 0.03162 µM) it was 0.924. In addition, the relative viability turned out to be 0.774 in the assay on NCI-H2126 (first compound 0.3162 µM); 0.837 in the assay with IA-LM (first compound 0.01 µM); 0.97 in the assay on IA-LM (first compound 0.03162 µM); 0.848 in the assay with IA-LM (first compound 0.3162 µM); 0.37 in the assay with EBC-1 (first compound 0.01 µM); 0.451 in the assay on EBC-1 (first compound 0.03162 µM). This compound gave a relative viability in the assay with EBC-1 (first compound 0.3162 µM) of 0.371.
Turning to `CC(C)Oc1cc(Nc2nc(N[C@@H](C)c3ccc(F)cn3)ncc2Cl)n[nH]1` [AZ23] + CC(C)C[C@H](NC(=O)[C@H](Cc1ccccc1)NC(=O)c1cnccn1)B(O)O [Bortezomib] (partner 0.002 µM), the relative viability with NCI-H1299 (first compound 0.01 µM) amounted to 1.03; in the assay on NCI-H1299 (first compound 0.03162 µM), 1.02; in the assay on NCI-H1299 (first compound 0.3162 µM), 1.1; in the assay on Calu-6 (first compound 0.03162 µM), 1.15; in the assay with Calu-6 (first compound 0.3162 µM), 1.04; in the assay on NCI-H1703 (first compound 0.03162 µM), 0.367. The relative viability in the assay with NCI-H1703 (first compound 0.3162 µM) is 0.363; in the assay on NCI-H2126 (first compound 0.01 µM), 1.18; in the assay with NCI-H2126 (first compound 0.03162 µM), 1.18; in the assay with NCI-H2126 (first compound 0.3162 µM), 1.09; with IA-LM (first compound 0.01 µM), 1; in the assay with IA-LM (first compound 0.03162 µM), 0.883. For the same compound, the relative viability came out at 0.776 in the assay on IA-LM (first compound 0.3162 µM), 0.579 with EBC-1 (first compound 0.01 µM), 0.64 with EBC-1 (first compound 0.03162 µM) and 0.493 in the assay on EBC-1 (first compound 0.3162 µM).
Turning to `CC(C)Oc1cc(Nc2nc(N[C@@H](C)c3ccc(F)cn3)ncc2Cl)n[nH]1` [AZ23] + CS(=O)(=O)CCNCc1ccc(-c2ccc3ncnc(Nc4ccc(OCc5cccc(F)c5)c(Cl)c4)c3c2)o1 [Lapatinib] (partner 2 µM), the relative viability with A549 (first compound 0.01 µM) stood at 1.16; in the assay on A549 (first compound 0.03162 µM), 0.945; in the assay with A549 (first compound 0.3162 µM), 1.02; in the assay on NCI-H1299 (first compound 0.01 µM), 0.977; with NCI-H1299 (first compound 0.03162 µM), 1.08; in the assay with NCI-H1299 (first compound 0.3162 µM), 1.03. The relative viability with Calu-6 (first compound 0.03162 µM) came to 1.25; in the assay on Calu-6 (first compound 0.3162 µM), 1.08; with NCI-H1703 (first compound 0.01 µM), 0.939; with NCI-H1703 (first compound 0.03162 µM), 1.16; in the assay with NCI-H1703 (first compound 0.3162 µM), 1.3; in the assay with NCI-H2126 (first compound 0.01 µM), 0.838. The relative viability in the assay with NCI-H2126 (first compound 0.03162 µM) was 0.821; with NCI-H2126 (first compound 0.3162 µM) it was 0.842; in the assay on IA-LM (first compound 0.01 µM), 0.872; in the assay on IA-LM (first compound 0.03162 µM), 1.37; with IA-LM (first compound 0.3162 µM) it was 0.871; in the assay on EBC-1 (first compound 0.03162 µM), 0.234. In the assay with EBC-1 (first compound 0.3162 µM), this compound registered a relative viability of 0.194.
Turning to `COc1cc(N2CCC(C(N)=O)CC2)ccc1Nc1nc(N)c(Cl)c(Nc2ccccc2S(=O)(=O)C(C)C)n1` [HG-5-88-01] + CC(C)C[C@H](NC(=O)[C@H](Cc1ccccc1)NC(=O)c1cnccn1)B(O)O [Bortezomib] (partner 0.002 µM), the relative viability was found to be 1.02 in the assay with NCI-H1299 (first compound 0.04 µM); 1.02 with NCI-H1299 (first compound 0.1265 µM); 1.03 with NCI-H1299 (first compound 0.4 µM); 1.04 in the assay with NCI-H1299 (first compound 1.265 µM); 1.04 with NCI-H1299 (first compound 4 µM); 1.03 in the assay with Calu-6 (first compound 0.04 µM). Also, the relative viability in the assay on Calu-6 (first compound 0.1265 µM) was 0.998; with Calu-6 (first compound 0.4 µM), 0.978; with Calu-6 (first compound 1.265 µM) it was 0.925; in the assay on Calu-6 (first compound 4 µM), 0.841; with NCI-H1703 (first compound 0.04 µM), 0.263; in the assay on NCI-H1703 (first compound 0.1265 µM), 0.42. Also, the relative viability in the assay with NCI-H1703 (first compound 0.4 µM) was 0.384; in the assay on NCI-H1703 (first compound 1.265 µM), 0.312; with NCI-H1703 (first compound 4 µM), 0.239; with NCI-H2126 (first compound 0.04 µM) it was 1.16; in the assay on NCI-H2126 (first compound 0.1265 µM), 1.12; in the assay with NCI-H2126 (first compound 0.4 µM) it was 1.13. The relative viability in the assay with NCI-H2126 (first compound 1.265 µM) was 1.15; in the assay with NCI-H2126 (first compound 4 µM), 1.12; with IA-LM (first compound 0.04 µM) it was 0.835; in the assay with IA-LM (first compound 0.1265 µM), 0.849; in the assay on IA-LM (first compound 0.4 µM) it was 0.724; with IA-LM (first compound 1.265 µM), 0.812. Also, the relative viability with IA-LM (first compound 4 µM) turned out to be 0.666; in the assay on EBC-1 (first compound 0.04 µM), 0.567; in the assay on EBC-1 (first compound 0.1265 µM) it was 0.624; in the assay on EBC-1 (first compound 0.4 µM), 0.549; with EBC-1 (first compound 1.265 µM), 0.474; in the assay with EBC-1 (first compound 4 µM), 0.241.
`Clc1ccc(Nc2nnc(Cc3ccncc3)c3ccccc23)cc1` [Vatalanib] + CC(C)C[C@H](NC(=O)[C@H](Cc1ccccc1)NC(=O)c1cnccn1)B(O)O [Bortezomib] (partner 0.002 µM): the relative viability in the assay on NCI-H1299 (first compound 0.04 µM) was 1.02; in the assay with NCI-H1299 (first compound 0.1265 µM), 1.06; with NCI-H1299 (first compound 0.4 µM) it was 1; in the assay with NCI-H1299 (first compound 1.265 µM), 1.04; in the assay on NCI-H1299 (first compound 4 µM), 1.02; with Calu-6 (first compound 0.04 µM) it was 1.07. The relative viability in the assay with Calu-6 (first compound 0.1265 µM) came to 0.991; with Calu-6 (first compound 0.4 µM), 1.18; with Calu-6 (first compound 1.265 µM), 0.911; with Calu-6 (first compound 4 µM), 1.1; in the assay on NCI-H1703 (first compound 0.04 µM) it was 0.464; in the assay on NCI-H1703 (first compound 0.4 µM), 0.558. Besides, the relative viability in the assay with NCI-H1703 (first compound 1.265 µM) is 0.237; in the assay with NCI-H1703 (first compound 4 µM) it was 0.21; with NCI-H2126 (first compound 0.04 µM), 1.06; in the assay with NCI-H2126 (first compound 0.1265 µM) it was 1.14; in the assay on NCI-H2126 (first compound 0.4 µM), 1.17; in the assay with NCI-H2126 (first compound 1.265 µM), 1.1. Also, the relative viability in the assay on NCI-H2126 (first compound 4 µM) was found to be 1.13; with IA-LM (first compound 0.04 µM), 0.963; in the assay on IA-LM (first compound 0.1265 µM) it was 0.955; in the assay with IA-LM (first compound 0.4 µM) it was 0.91; with IA-LM (first compound 1.265 µM) it was 0.763; in the assay on IA-LM (first compound 4 µM), 0.871. The relative viability in the assay with EBC-1 (first compound 0.04 µM) stood at 0.489; with EBC-1 (first compound 0.1265 µM), 0.498; in the assay on EBC-1 (first compound 0.4 µM), 0.807; in the assay on EBC-1 (first compound 1.265 µM) it was 0.519; with EBC-1 (first compound 4 µM), 0.524.
